From US20190169218A1, “AMPHIPATHIC COMPOUND HAVING NOVEL PENTA-SACCHARIDE HYDROPHILIC GROUP AND USE THEREOF” (Industry-University Cooperation Foundation Hanyang …, priority 2016, published 2019)

Columns and labels:
[1] = molecular target: T1, human β2 adrenergic receptor (β2AR) (Homo sapiens, UniProt P07550); assay: β2AR activity by [3H]-dihydroalprenolol radioactive ligand binding assay; format: biochemical; details: for long-term β2AR activity ([3H]-DHA binding): 3 or 5 days at room temperature
T1 construct: Flag; made in house
Description: The membrane protein stabilizing ability of receptors (mBBr-β2ARs) solubilized in PSAs or PSEs was evaluated by measuring the binding activity of the receptors to [^3H]-dihydroalprenolol ([^3H]-DHA).
Specifically, radioactive ligand binding assay was performed as follows. β2ARs purified with 0.1 wt % DDM was concentrated to about 10 mg/mL (approximately 200 μM). β2ARs purified with DDM were used to prepare a master binding mixture containing 10 nM [^3H]-dihydroalprenolol (DHA), which was dissolved in 0.2 wt % of DDM, PSA or PSE and supplemented with 0.5 mg/mL BSA. At a concentration of 0.2 pmol, the activity of the receptors purified with the amphipathic compounds was monitored at regular intervals over a 4-day incubation period. Protein samples were incubated on ice for 2 days and then at room temperature for 2 days. Receptor activity was measured by binding assay for dissolved radioactive ligands. The receptors purified with DDM or a novel formulation (PSA-C11, PSE-C11 or PSE-C13) were incubated with 10 nM [^3H]-DHA at room temperature for 30 minutes. The mixture was loaded onto a G-50 column, a solution passed through the column was collected in 1 mL of a binding buffer (100 mM NaCl and 20 mM HEPES (pH 7.5) supplemented with 0.5 mg/mL BSA and 20×CMC amphipathic compounds), and 15 mL of a scintillation fluid was added to the solution. Receptor-bound [^3H]-DHA was measured using a scintillation counter (Beckman). Non-specific binding of [^3H]-DHA was measured by adding 1 μM alprenolol (Sigma) to the same reaction mixture. The binding degree of the receptors to [^3H]-DHA was represented by a column graph.
The ability of TPSs (TPS-As, TPS-Es and TPS-ELs) to stabilize the structures of human β2 adrenergic receptors (β2ARs) and G protein-coupled receptors (GPCRs) was measured. That is, DDM-purified receptors were diluted with a buffer solution containing only each of the TPSs without cholesteryl hemisuccinate (CHS) or a buffer solution containing CHS and DDM. The final concentration of the compounds was CMC+0.2wt %, and the binding activity of the receptors to ligands was evaluated by measuring the degree of binding of the receptors to [^3H]-dihydroalprenolol ([^3H]-DHA).
Specifically, radioactive ligand binding assay was performed as follows. β2ARs were purified with 0.1 wt % DDM (D. M. Rosenbaum et al., Science, 2007, 318, 1266-1273.) and was concentrated to about 10 mg/mL (approximately 200 μM). β2ARs purified with DDM were used to prepare a master binding mixture containing 10 nM [^3H]-dihydroalprenolol (DHA), which was dissolved in 0.2% amphipathic compounds (DDM or TPSs) and supplemented with 0.5 mg/mL BSA. The activity of the receptors purified with the amphipathic compounds was monitored at regular intervals over a 3- to 5-day incubation period. The receptors purified with DDM or TPSs were incubated with 10 nM [^3H]-DHA at room temperature for 30 minutes. The mixture was loaded onto a G-50 column, a solution passed through the column was collected in 1 mL of a binding buffer (100 mM NaCl and 20 mM HEPES (pH 7.5) supplemented with 0.5 mg/mL BSA and 20×CMC of each amphipathic compound), and 15 mL of a scintillation fluid was added to the solution. Receptor-bound [^3H]-DHA was measured using a scintillation counter (Beckman). The binding degree of the receptors to [^3H]-DHA was represented by a column graph.

[2] = hydrodynamic radius of micelles by dynamic light scattering (DLS); format: physicochemical; details: compound at 1.0 wt %
Description: Methods of measuring the radius of micelles are not particularly limited, and methods widely known in the art may be used. For example, dynamic light scattering (DLS) may be used.
(§1) Specifically, critical micellar concentrations (CMCs) were measured using hydrophobic fluorescent staining and diphenylhexatriene (DPH), and the hydrodynamic radii (Rh) of micelles formed by each compound at a concentration of 1.0 wt % were measured using dynamic light scattering (DLS). The results were compared with results obtained from an existing amphipathic molecule (detergent), DDM, and are shown in Table 1.
When measuring, each of PSAs, PSEs and TPSs was used at a concentration of 1.0 wt %.

[3] = critical micelle concentration (CMC) by hydrophobic fluorescent staining with diphenylhexatriene (DPH); format: physicochemical
Text: Methods of measuring CMC are not particularly limited, and methods widely known in the art may be used. For example, a fluorescence staining method using diphenylhexatriene (DPH) may be used.
To characterize PSAs of Preparation Examples 1 to 3 synthesized according to the synthetic method of Example 1; PSEs of Preparation Examples 4 to 7 synthesized according to the synthetic method of Example 2; TPS-Es and TPS-ELs of Preparation Examples 8 to 14 synthesized according to the synthetic method of Example 3; and TPS-As of Preparation Examples 15 to 17 synthesized according to the synthetic method of Example 4, the critical micellar concentrations (CMCs) of PSAs, PSEs and TPSs and the hydrodynamic radii (Rh) of formed micelles were measured.
as §1

[4] = tested on: T4L-β2AR-Gs or β2AR-Gs complexes; assay: purification and stability of T4L-β2AR-Gs or β2AR-Gs complexes (analytical gel filtration, negative staining EM); design: species or system human; details: after incubation for 15 and 17 days
Description: The ability of PSE-C11 or TPS-E10L to purify and stabilize T4L-β2AR-Gs or β2AR-Gs complexes was measured using electron microscopy (EM) analysis.
Specifically, measurement of the ability of PSE-C11 for TPS-E10L to purify and stabilize T4L-β2AR-Gs or β2AR-Gs complexes was performed as follows. 100 μM T4L-β2AR solubilized in 0.1 wt % DDM was mixed with 120 μM Gs heterotrimers for 30 minutes. 0.5 units of apyrase (NEB) and 2 mM MgCl2 were added to the mixture, followed by a 1-hour incubation to form complexes. 1 wt % PSE-C11 or TPS-E10L was respectively added to the mixture to achieve a final concentration of 0.8%, and incubated for 30 minutes to allow DDM to be exchanged with PSE-C11 or TPS-E10L. […] Finally, proteins were eluted with a 0.05% (100×CMC) PSE-C11 or TPS-E10L buffer. Gel filtration was performed using a running buffer (20 mM HEPES (pH 7.5), 100 mM NaCl, 0.005% PSE-C11 or TPS-E10L, 1 μM BI, 100 μM TCEP) to purify T4L-β2AR-Gs complexes. To measure the stability of β2AR-Gs complexes present in PSE-C11 or TPS-E10L, analytical gel filtration was performed with running buffers of the same formulation at 12 hours, 1 day, 3 days, 7 days, and 15 days. After a 15 day-incubation, analytical gel filtration was performed using an amphiphilic compound pre-buffer having the same formulation as above without PSE-C11 or TPS-E10L.
In addition, negative staining EM analysis for T4L-β2AR-Gs or β2AR-Gs complexes present in PSE-C11 was performed as follows. Samples containing T4L-β2AR-Gs or β2AR-Gs were prepared to perform electron microscopy analysis using a conventional negative staining protocol (see Peisley, A. et al., G Protein-Coupled Receptors in Drug Discovery: Methods and Protocols, Methods in Molecular Biology, 1335, 29-38 (2015)), and imaging was performed by operating a Tecnai T12 electron microscope at 120 kV at room temperature. Images were recorded with a Gatan US4000 CCD camera at a 71,138×magnification with a defocus value of ˜[…].

[5] = molecular target: T2, uric acid-xanthine/H+ symporter (UapA) (Emericella nidulans, UniProt Q07307, G411V); assay: thermal stability of UapA by CPM analysis; design: species or system Aspergillus nidulans; details: CMC+0.2 wt %, 40° C., 120 minutes
T2 construct: GFP; made in house; host or cells: Saccharomyces cerevisiae FGY217
Description: The ability of TPSs (TPS-As, TPS-Es and TPS-ELs) to stabilize the structure of uric acid-xanthine/H+ symporter (UapA) isolated from Aspergillus nidulans was measured. The structural stability of UapA was evaluated using a sulfhydryl-specific fluorophore, N-[4-(7-diethylamino-4-methyl-3-coumarinyl)phenyl]maleimide (CPM).
Specifically, UapAG411V1-11 (hereinafter, referred to as ‘UapA’) was expressed in a Saccharomyces cerevisiae FGY217 strain as a GFP fusion protein, and was isolated using a sample buffer (20 mM Tris (pH 7.5), 150 mM NaCl, 0.03% DDM, 1 mM xanthine). The transporter was concentrated to about 10 mg/mL using a 100 kDa molecular weight cut-off filter (Millipore). The transporter was diluted with a CMC+0.04 wt % or CMC+0.2 wt % buffer at a ratio of 1:150 in a Greiner 96-well plate containing one of TPS-As (TPS-A6, TPS-A7 or TPS-A8), TPS-Es (TPS-E6, TPS-E7 or TPS-E8), TPS-ELs (TPS-E8L, TPS-E9L, TPS-E10L or TPS-E11L), MNG-3 or DDM (control group). […] During incubation, fluorescence emission intensity was monitored using a microplate spectrophotometer set at excitation and emission wavelengths of 387 and 463 nm, respectively. The maximum value of fluorescence intensity was used to calculate the relative percentage of folded transporters during the incubation period. […]

T1 sequence (P07550 whole entry): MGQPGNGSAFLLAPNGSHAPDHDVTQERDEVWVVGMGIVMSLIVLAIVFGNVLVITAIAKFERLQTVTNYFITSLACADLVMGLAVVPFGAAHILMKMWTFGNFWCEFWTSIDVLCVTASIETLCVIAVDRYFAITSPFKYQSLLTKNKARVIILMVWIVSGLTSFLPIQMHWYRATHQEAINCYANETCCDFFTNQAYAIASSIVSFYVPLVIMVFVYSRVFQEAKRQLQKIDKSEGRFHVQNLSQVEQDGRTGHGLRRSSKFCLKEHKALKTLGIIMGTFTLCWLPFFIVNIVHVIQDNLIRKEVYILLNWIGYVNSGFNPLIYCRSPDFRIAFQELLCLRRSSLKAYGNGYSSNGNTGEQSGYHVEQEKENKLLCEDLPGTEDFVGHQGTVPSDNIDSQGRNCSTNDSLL
T2 sequence (Q07307 12-574 G411V): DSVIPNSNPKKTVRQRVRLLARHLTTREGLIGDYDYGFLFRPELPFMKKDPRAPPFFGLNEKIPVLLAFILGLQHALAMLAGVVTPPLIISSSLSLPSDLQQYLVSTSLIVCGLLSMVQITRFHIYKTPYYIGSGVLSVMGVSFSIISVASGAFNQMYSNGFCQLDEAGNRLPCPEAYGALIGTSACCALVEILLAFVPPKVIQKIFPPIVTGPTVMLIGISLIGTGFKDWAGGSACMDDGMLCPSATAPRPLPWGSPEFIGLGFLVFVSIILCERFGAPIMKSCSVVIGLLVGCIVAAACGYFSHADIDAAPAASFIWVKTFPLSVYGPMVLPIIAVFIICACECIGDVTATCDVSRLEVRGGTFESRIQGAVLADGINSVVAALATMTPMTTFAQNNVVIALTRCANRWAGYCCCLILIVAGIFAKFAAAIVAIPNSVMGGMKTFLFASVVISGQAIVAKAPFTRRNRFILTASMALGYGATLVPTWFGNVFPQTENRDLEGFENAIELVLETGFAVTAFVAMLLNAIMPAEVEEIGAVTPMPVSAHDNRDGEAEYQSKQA

| Compound | long-term β2AR activity ([3H]-DHA binding) [1] | initial receptor activity maintained ([1]; after 5 days of incubation at room temperature) | Rh (nm), hydrodynamic radius of micelles [2] | CMC [3] | CMC (wt %) [3] | stability of β2AR-Gs complexes (analytical gel filtration) [4] | maintaining folding state of UapA (CPM) [5] |
| --- | --- | --- | --- | --- | --- | --- | --- |
| CCCCCCCCCCOCC(COCCCCCCCCCC)(COCCCCCCCCCC)CO[C@@H]1OC(COCCCO[C@@H]2OC(CO)[C@@H](O)C(O)C2O)[C@@H](OCCCO[C@@H]2OC(CO)[C@@H](O)C(O)C2O)C(OCCCO[C@@H]2OC(CO)[C@@H](O)C(O)C2O)C1OCCCO[C@@H]1OC(CO)[C@@H](O)C(O)C1O (some centres unmarked) [TPS-E10L] | significantly better than that of DDM | up to 90% | 4.8 ± 0.34 nm | ~0.002 mM | ~0.0003 wt % | no separation of the complexes was observed at all |  |
| CCCCCCCCCCCOCC(COCCCCCCCCCCC)(COCCCCCCCCCCC)CO[C@@H]1OC(COCCCO[C@@H]2OC(CO)[C@@H](O)C(O)C2O)[C@@H](OCCCO[C@@H]2OC(CO)[C@@H](O)C(O)C2O)C(OCCCO[C@@H]2OC(CO)[C@@H](O)C(O)C2O)C1OCCCO[C@@H]1OC(CO)[C@@H](O)C(O)C1O (some centres unmarked) [TPS-E11L] | significantly better than that of DDM |  | 40.6 ± 4.4 nm | ~0.001 mM | ~0.0002 wt % |  | the best effect |
